Experimental data published in patent US9908848B2, “Amide derivatives of lactam based N-acylethanolamine acid amidase (NAAA) inhibitors” (The Regents of the University of California, priority 2013, dated 2018).
pIC50: −log10 of the molar value. Blank lines part the entries; values can stand above or below the compound they belong to.

Key:
human NAAA = biological target: T1, human NAAA (Homo sapiens, UniProt Q02083); assay: Fluorogenic h-NAAA assay; type: biochemical; conditions: for pIC50: recombinant HEK-hNAAA preparation; for h-NAAA Fluorogenic assay (n.a.): @100 μM; for inhibition at 50 µM / inhibition at 2.5 µM: read-out: h-NAAA Fluorogenic assay % inhib.
T1 construct: made in house; host or cells: HEK293 cells, stably transfected; soluble fraction after freeze/thaw
T1 sequence (Q02083 29-359): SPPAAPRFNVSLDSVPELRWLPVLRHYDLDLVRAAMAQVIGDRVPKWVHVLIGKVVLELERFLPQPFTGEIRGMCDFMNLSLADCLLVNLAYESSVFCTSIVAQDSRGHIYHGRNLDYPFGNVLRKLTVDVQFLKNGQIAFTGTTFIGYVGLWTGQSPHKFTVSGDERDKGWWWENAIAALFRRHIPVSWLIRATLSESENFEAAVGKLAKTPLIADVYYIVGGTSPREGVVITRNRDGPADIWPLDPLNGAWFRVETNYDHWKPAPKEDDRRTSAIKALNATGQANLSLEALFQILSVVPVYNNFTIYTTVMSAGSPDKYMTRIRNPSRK
Method: Hek293 cells stably transfected with the human NAAA coding sequence cloned from a human spleen cDNA library were used as enzyme source. Recombinant HEK-hNAAA pellets were resuspended in homogenizing buffer, and sonicated. Samples were centrifuged at 800×g for 15 min at 4° C. and the supernatants were ultracentrifuged at 12,000×g for 30 min at 4° C. The pellets were resuspended in PBS pH 7.4 on ice and subjected to a freeze/thaw cycle at −80° C. (two freeze/thaw cycles at −80° C. for Examples 34-37). The suspension was finally centrifuged at 105,000×g for 1 h at 4° C. Protein concentration was measured and samples stored at −80° C. until use.
The assay was run in Optiplate 96-wells black plates, in a total reaction volume of 200 μL. NAAA protein preparation (4.0 μg for Examples except 34-37, which were 20.0 μg) was pre-incubated for 10 min with various concentrations of test compounds or vehicle control (5% DMSO) in 100 mM citrate/phosphate buffer (pH 4.5) containing 3.0 mM DTT, 0.1% Triton X-100, 0.05% BSA, 150 mM NaCl. N-(4-methyl-2-oxo-chromen-7-yl)-hexadecanamide was used as a substrate (5.0 μM) and the reaction carried over for 30 min at 37° C. The samples were then read in a Perkin Elmer Envision plate reader using an excitation wavelength of 360 nm and emission 460 nm. IC50 values were calculated by non-linear regression analysis of log [concentration]/inhibition curves using GraphPad Prism 5 (GraphPad Software Inc., CA—USA) applying a standard slope curve fitting.

r-NAAA = biological target: T2, r-NAAA (Rattus norvegicus, UniProt Q5KTC7); assay: UPLC/MS r-NAAA assay; type: biochemical; conditions: for inhibition at 30 µM / inhibition at 3 µM: read-out: r-NAAA UPLC/MS assay % inhib.; for pIC50: rat lung lysosomal NAAA preparation; for r-NAAA UPLC/MS assay (n.a.): @100 μM
T2 construct: Lysosomal NAAA protein preparation was obtained by homogenizing male Sprague-Dawley rat lungs; tissue Charles River; host or cells: male Sprague-Dawley rat lung, soluble lysosomal fraction
T2 sequence (Q5KTC7 34-362): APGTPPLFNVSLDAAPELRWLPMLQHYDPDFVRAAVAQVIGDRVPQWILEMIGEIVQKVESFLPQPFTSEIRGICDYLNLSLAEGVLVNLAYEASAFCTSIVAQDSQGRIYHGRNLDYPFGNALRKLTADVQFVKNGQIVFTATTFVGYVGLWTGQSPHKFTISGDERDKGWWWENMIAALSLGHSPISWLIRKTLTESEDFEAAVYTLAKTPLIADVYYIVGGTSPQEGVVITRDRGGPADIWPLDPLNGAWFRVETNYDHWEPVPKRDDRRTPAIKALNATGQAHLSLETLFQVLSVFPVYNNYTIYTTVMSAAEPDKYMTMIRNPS
Method: Lysosomal NAAA protein preparation was obtained by homogenizing male Sprague-Dawley rat lungs (Charles River) in 20 mM Tris-HCl buffer pH 7.4 containing 0.32M sucrose. Samples were centrifuged at 800×g for 15 min at 4° C. Supernatants were centrifuged at 12,000×g for 30 min at 4° C. Pellets were then resuspended in PBS pH 7.4 and subjected to a freeze/thaw cycle at −80° C. The suspension was finally centrifuged at 105,000 g for 1 h at 4° C. The supernatant was used in enzymatic assays.
NAAA preparations were pre-incubated with various concentrations of test compounds or vehicle control in 100 mM NaH2PO4/Citrate buffer, 1% Triton-X, 3 mM DTT (pH 4.5) for 30 min at 37° C. Samples were incubated with heptadecenoylethanolamide (50 μM, Avanti Polar Lipids) at 37° C. for 30 min. The reaction was terminated by addition of cold methanol containing heptadecanoic acid (NuCheck Prep) as internal standard. Samples were analyzed by UPLC/MS (Acquity, Waters). Heptadecenoic and heptadecanoic acids were eluted on an Acquity UPLC BEH C18 column (50 mm length, 2.1 mm i.d., 1.7 μm pore size, Waters) isocratically at 0.5 mL/min for 1.5 min with a solvent mixture of 95% methanol and 5% H2O, both containing 0.25% Acetic Acid and 5.0 mM ammonium acetate. The column temperature was 40° C. Electrospray ionization was in the negative mode, capillary voltage was 0.5 kV, cone voltage was […], desolvation temperature was 500° C. N2 was used as drying gas at a flow rate of 1000 L/hour and a temperature of 500° C. The [M−H]^− ion was monitored in the selected-ion monitoring mode (m/z values: heptadecenoic acid 267.37, heptadecanoic acid 269.37). Calibration curves were generated using commercial heptadecenoic acid (NuCheck Prep) Inhibition of NAAA activity was calculated as reduction of heptadecenoic acid in the samples compared to vehicle controls. IC50 values were calculated by non-linear regression analysis of log [concentration]/inhibition curves using GraphPad Prism 5 (GraphPad Software Inc., CA—USA) applying a standard slope curve fitting.

[1] = tested on: carrageenan-induced paw edema and heat hyperalgesia; assay: Carrageenan-induced inflammation (paw edema, heat hyperalgesia); type: in vivo; conditions: mice, oral administration (p.o.), 3-30 mg/kg, dose- and time-dependent

Structure (SMILES): O=C(C/C=C/c1ccccc1)N[C@H]1CNC1=O [Example 15, (E)-N-[(3S)-2-Oxoazetidin-3-yl]-4-phenyl-but-3-enamide]
inhibition at 30 µM (r-NAAA): 20%

Structure (SMILES): CCCCC/C=C\CC(=O)N[C@H]1CNC1=O [Example 6, (Z)—N-[(3S)-2-Oxoazetidin-3-yl]-non-3-enamide]
pIC50 (human NAAA): 5.71
pIC50 (r-NAAA): 6.17

Structure (SMILES): O=C(CCCOCc1ccccc1)N[C@H]1CNC1=O [Example 9, 4-Benzyloxy-N-[(3S)-2-oxoazetidin-3-yl]-butanamide]
r-NAAA UPLC/MS assay (n.a.) (r-NAAA): n.a. (n.a. = <10% inhib.@100 μM)

Structure (SMILES): O=C(N[C@H]1CNC1=O)c1ccc(OCc2ccccc2)cc1 [Example 11, 4-Benzyloxy-N-[(3S)-2-oxoazetidin-3-yl]-benzamide]
inhibition at 30 µM (r-NAAA): 10%

Structure (SMILES): O=C(N[C@@H]1CNC1=O)c1ccc(OCc2ccccc2)cc1 [Example 12, 4-Benzyloxy-N-[(3R)-2-oxoazetidin-3-yl]-benzamide]
inhibition at 3 µM (r-NAAA): 10%

Structure (SMILES): O=C(CCc1ccccc1)N[C@H]1CNC1=O [Example 19, 3-Phenyl-N-[(3S)-2-oxoazetidin-3-yl]-propanamide]
inhibition at 50 µM (human NAAA): 15%

Structure (SMILES): O=C(CCCCCC1CCCCC1)N[C@H]1CNC1=O [Example 17, 6-Cyclohexyl-N-[(3S)-2-oxoazetidin-3-yl]-hexanamide]
pIC50 (human NAAA): 6.56
pIC50 (r-NAAA): 6.89

Structure (SMILES): O=C(N[C@@H]1CNC1=O)c1ccc(-c2ccccc2)cc1 [Example 2, 4-Phenyl-N-[(3R)-2-oxoazetidin-3-yl]-benzamide]
inhibition at 3 µM (r-NAAA): 10%

Structure (SMILES): CC1(C(=O)N[C@@H]2CNC2=O)CCCCC1 [Example 14, 1-Methyl-N-[(3R)-2-oxoazetidin-3-yl]-cyclohexane-carboxamide]
r-NAAA UPLC/MS assay (n.a.) (r-NAAA): n.a. (n.a. = <10% inhib.@100 μM)

Structure (SMILES): CC1(C(=O)N[C@H]2CNC2=O)CCCCC1 [Example 13, 1-Methyl-N-[(3S)-2-oxoazetidin-3-yl]-cyclohexane-carboxamide]
r-NAAA UPLC/MS assay (n.a.) (r-NAAA): n.a. (n.a. = <10% inhib.@100 μM)

Structure (SMILES): CCCCC/C=C/CC(=O)N[C@H]1CNC1=O [Example 5, (E)-N-[(3S)-2-Oxoazetidin-3-yl]-non-3-enamide]
pIC50 (human NAAA): 5.87
pIC50 (r-NAAA): 5.64
heat hyperalgesia [1]: markedly attenuated
paw edema [1]: markedly attenuated

Structure (SMILES): O=C(CCCOCc1ccccc1)N[C@@H]1CNC1=O [Example 10, 4-Benzyloxy-N-[(3R)-2-oxoazetidin-3-yl]-butanamide]
inhibition at 30 µM (r-NAAA): 10%

Structure (SMILES): O=C(N[C@H]1CNC1=O)c1ccc(-c2ccccc2)cc1 [Example 1, 4-Phenyl-N-[(3S)-2-oxoazetidin-3-yl]-benzamide]
inhibition at 3 µM (r-NAAA): 15%

Structure (SMILES): O=C(CCCCC1CCCCC1)N[C@H]1CNC1=O [Example 16, 5-Cyclohexyl-N-[(3S)-2-oxoazetidin-3-yl]-pentanamide]
pIC50 (r-NAAA): 6.00

Structure (SMILES): O=C(CCCCCCc1ccccc1)N[C@@H]1CNC1=O [Example 8, 7-Phenyl-N-[(3R)-2-Oxoazetidin-3-yl]-heptanamide]
inhibition at 3 µM (r-NAAA): 30%

Structure (SMILES): O=C(CCc1ccc(-c2ccccc2)cc1)N[C@H]1CNC1=O [Example 18, 3-(4-Phenylphenyl)-N-[(3S)-2-oxoazetidin-3-yl]-propanamide]
h-NAAA Fluorogenic assay (n.a.) (human NAAA): n.a. (n.a. = <10% inhib.@100 μM)

Structure (SMILES): CCCCCCCCC(=O)N[C@@H]1CNC1=O [Example 4, N-[(3R)-2-Oxoazetidin-3-yl]-nonanamide]
pIC50 (human NAAA): 4.40

The next lines start with the values.

pIC50 (human NAAA): 5.40
Structure (SMILES): CCCC[C@H]1CC[C@H](C(=O)N[C@H]2CNC2=O)CC1 [Example 34, (1r,4R)-4-butyl-N—((S)-2-oxoazetidin-3-yl)cyclohexanecarboxamide]

pIC50 (human NAAA): 3.96
Structure (SMILES): O=C(CCCc1ccccc1)N[C@H]1CNC1=O [Example 32, 4-Phenyl-N-[(3S)-2-oxoazetidin-3-yl]-butanamide]

pIC50 (human NAAA): 4.87
Structure (SMILES): O=C(CCCCCc1ccccc1)N[C@H]1CNC1=O [Example 31, 6-Phenyl-N-[(3S)-2-oxoazetidin-3-yl]-hexanamide]

h-NAAA Fluorogenic assay (n.a.) (human NAAA): n.a. (n.a. = <10% inhib.@100 μM)
Structure (SMILES): O=C(CCc1ccccc1)N[C@@H]1CNC1=O [Example 20, 3-Phenyl-N-[(3R)-2-oxoazetidin-3-yl]-propanamide]

pIC50 (human NAAA): 7.37
Structure (SMILES): CCCCCCCCCCC(=O)N[C@H]1CNC1=O [Example 24, N-[(3S)-2-Oxoazetidin-3-yl]-undecanamide]

pIC50 (human NAAA): 4.47
Structure (SMILES): O=C(CCCCc1ccccc1)N[C@H]1CNC1=O [Example 25, 5-Phenyl-N-[(3S)-2-oxoazetidin-3-yl]-pentanamide]

pIC50 (human NAAA): 5.11
Structure (SMILES): CCCCCCC(=O)N[C@H]1CNC1=O [Example 21, N-[(3S)-2-Oxoazetidin-3-yl]-heptanamide]

inhibition at 2.5 µM (human NAAA): 16%
Structure (SMILES): CCCCc1ccc(C(=O)N[C@H]2CNC2=O)cc1 [Example 33, 4-Butyl-N-[(3S)-2-oxoazetidin-3-yl]-benzamide]

pIC50 (human NAAA): 6.66
Structure (SMILES): CCCCCCCC(C)C(=O)N[C@H]1CNC1=O (mixture of isomers) [Example 36, (2R)-2-methyl-N-[(3S)-2-oxoazetidin-3-yl]nonanamide and (2S)-2-methyl-N-[(3S)-2-oxoazetidin-3-yl]nonanamide]

pIC50 (human NAAA): 6.12
Structure (SMILES): CCCCCCCC(C)(C)C(=O)N[C@H]1CNC1=O [Example 37, 2,2-dimethyl-N-[(3S)-2-oxoazetidin-3-yl]nonanamide]

inhibition at 50 µM (human NAAA): 60%
Structure (SMILES): C[C@@H]1NC(=O)[C@H]1NC(=O)CCc1ccc(-c2ccccc2)cc1 [Example 29, N-[(2S,3S)-2-methyl-4-oxo-azetidin-3-yl]-3-(4-phenylphenyl)-propanamide]

h-NAAA Fluorogenic assay (n.a.) (human NAAA): n.a. (n.a. = <10% inhib.@100 μM)
Structure (SMILES): O=C(CCCCc1ccccc1)N[C@@H]1CNC1=O [Example 26, 5-Phenyl-N-[(3R)-2-oxoazetidin-3-yl]-pentanamide]

pIC50 (human NAAA): 6.03
Structure (SMILES): CCCCCCCC(=O)N[C@H]1CNC1=O [Example 22, N-[(3S)-2-Oxoazetidin-3-yl]-octanamide]

inhibition at 2.5 µM (human NAAA): 20%
inhibition at 3 µM (r-NAAA): 40%
Structure (SMILES): CCCCCCCCC(=O)N(C)[C@H]1CNC1=O [Example 27, N-Methyl-N-[(3S)-2-Oxoazetidin-3-yl]-nonanamide]

pIC50 (human NAAA): 6.42
Structure (SMILES): CCCCCCCCC(=O)N[C@@H]1C(=O)N[C@H]1C [Example 28, N-[(2S,3S)-2-methyl-4-oxo-azetidin-3-yl]-nonanamide]

pIC50 (human NAAA): 4.81
Structure (SMILES): CCCc1ccc(CC(=O)N[C@H]2CNC2=O)cc1 [Example 35, N-[(3S)-2-oxoazetidin-3-yl]-2-(4-propylphenyl)acetamide]
